Source: patent US8569241B2, “Composition for improving brain function and method for improving brain function” (Calpis Co., Ltd., priority 2009, dated 2013)

Experiments:
Format in all cases: in vivo
[1] = tested on: scopolamine-induced amnesia; experiment: Y-shaped maze test, spontaneous alternation behavior, scopolamine-induced amnesia; details: once orally 60 min before test, ddY mice
Description: Male mice (n=15 to 75) of the ddY strain (approximately 7-week old) were used, and they received food and water ad lib. Test substances used were 0.05 nmol/kg weight (0.1 μg/kg weight), 0.5 nmol/kg weight (1 μg/kg weight), 1.5 nmol/kg weight (3 μg/kg weight), 5 nmol/kg weight (10 μg/kg weight), 50 nmol/kg weight (100 μg/kg weight), and 500 nmol/kg weight (1000 μg/kg weight) of Asn-Ile-Pro-Pro-Leu-Thr-Gln-Thr-Pro-Val-Val-Val-Pro-Pro-Phe-Leu-Gln-Pro-Glu. The test substances were administered to the mice once orally 60 minutes before the execution of a Y-shaped maze test for evaluation of spontaneous alternation behavior. Further, 30 minutes before the execution of the Y-shaped maze test, 1 mg/kg weight of scopolamine was subcutaneously administered on the backs of the mice in order to induce brain dysfunction (dysmnesia and/or cognitive impairment) in the mice. In the Y-shaped maze test, a Y-shaped maze was used as an experimental device, in which the length of each arm was 40 cm, the height of the wall was 12 cm, the width of the floor was 3 cm, and the width of the upper part was 10 cm, and three arms were connected to each other at an angle of 120 degrees. Each of the mice was placed at the tip of any one of the arms of the Y-shaped maze, and then let go to freely explore in the maze for 8 minutes. The sequence of the arms each of the mice entered was recorded. The number of entries by each of the mice for each of the arms during the measurement time was counted to be the total number of entries. In the sequence, the combination in which three different arms were selected in succession (for example, with the three arms respectively called A, B, and C, if the sequence of the arms entered is ABCBACACB, the count is 4 inclusive of overlapping) was investigated, and the number of the count was used as the number of spontaneous alternation behavior. The percentage of spontaneous alternation behavior was calculated by dividing the number of spontaneous alternation behavior by a number obtained by subtracting 2 from the total number of entries, and multiplying a resultant number by 100. The percentage of spontaneous alternation behavior was used as an indicator. […] The measured values were expressed in the form of mean±standard error for each group. A significant difference between the control group and the scopolamine control group was calculated using Student's t-test. Further, a significant difference between the scopolamine control group and the NIPPLTQTPVVVPPFLQPE-administered groups was calculated using Dunnett's multiple comparison test after one-way analysis of variance.
Male mice (n=15 to 45) of the ddY strain (approximately 7-week old) were used, and they received food and water ad Iib. Test substances used were: 50 nmol/kg weight (100 μg/kg weight) of Asn-Ile-Pro-Pro-Leu-Thr-Gln-Thr-Pro-Val-Val-Val-Pro-Pro-Phe-Leu-Gln-Pro-Glu; 50 nmol/kg weight (120 μg/kg weight) of […]([…]); 50 nmol/kg weight (100 μg/kg weight) of Ile-Pro-Pro-Leu-Thr-Gln-Thr-Pro-Val-Val-Val-Pro-Pro-Phe-Leu-Gln-Pro-Glu (IPPLTQTPVVVPPFLQPE); 50 nmol/kg weight (100 μg/kg weight) of Asn-Ile-Pro-Pro-Leu-Thr-Gln-Thr-Pro-Val-Val-Val-Pro-Pro-Phe-Leu-Gln-Pro (NIPPLTQTPVVVPPFLQP) (SEQ ID NO: 18); and 50 nmol/kg weight (50 μg/kg weight) of Thr-Gln-Thr-Pro-Val-Val-Val-Pro-Pro-Phe (TQTPVVVPPF) (SEQ ID NO: 19). The test substances were administered to the mice once orally 60 minutes before the execution of a Y-shaped maze test for evaluation of spontaneous alternation behavior. Further, 30 minutes before the execution of the Y-shaped maze test, 1 mg/kg weight of scopolamine was subcutaneously administered on the backs of the mice in order to induce brain dysfunction (dysmnesia and/or cognitive impairment) in the mice. […]

[2] = tested on: scopolamine-induced amnesia; experiment: as above; details: once orally 60 min before test, scopolamine 1 mg/kg s.c., ddY mice
[3] = tested on: memory maintenance; experiment: novel object recognition test for evaluation of memory maintenance; details: Example 4, FIG. 4; 500 nmol/kg weight (1000 μg/kg weight), once orally 60 min before training trial; retention trial 48 hours later; ddY mice
Description: Male mice (n=14 to 15) of the ddY strain (approximately 7-week old) were used, and they received food and water ad lib. A test substance used was 500 nmol/kg weight (1000 μg/kg weight) of Asn-Ile-Pro-Pro-Leu-Thr-Gln-Thr-Pro-Val-Val-Val-Pro-Pro-Phe-Leu-Gln-Pro-Glu. The test substance was administered to the mice once orally 60 minutes before the execution of a novel object recognition test for evaluation of memory maintenance. In the novel object recognition test, a 30 cm x30 cm x30 cm box was used as an experimental device. For acclimation, each of the mice was placed in the experimental device with floor bedding for 5 minutes, and then allo the aminals to go around freely in the device. On the next day of the acclimation treatment, a training trial was performed. In the training trial, two among three kinds of objects were selected and disposed in the experimental device (the objects were arranged along the central line of the floor at positions 8 cm away from the walls on two sides, and the positions were designated as X1 and X2). […] In the training trial and the retention trial, the time (seconds) the mice spent exploring each object by approaching within 1 cm therefrom was measured (except the time when the mice were riding on the object). For each of the training trial and the retention trial, an exploration time ratio between the two objects was calculated. […]

[4] = Example 2, FIG. 2, 50 nmol/kg weight, scopolamine 1 mg/kg s.c., Dunnett's test vs scopolamine control
[5] = Example 6, FIG. 6, 500 nmol/kg weight, Student's t-test
[6] = Example 3, FIG. 3, 500 nmol/kg weight (1000 μg/kg weight), Dunnett's test

Row | Sequence | prophylactic activity against amnesia (percentage of spontaneous alternation behavior) [1, 4] | prophylactic activity against amnesia (percentage of spontaneous alternation behavior) [2, 5] | also measured
1 | IPPLTQTPVVVPPFLQPE (Synthetic functional peptide) [Ile-Pro-Pro-Leu-Thr-Gln-Thr-Pro-Val-Val-Val-Pro-Pro-Phe-Leu-Gln-Pro-Glu] | had a prophylactic activity against amnesia | – | –
2 | LTQTPVVVPPFLQPE (Synthetic functional peptide) [Leu-Thr-Gln-Thr-Pro-Val-Val-Val-Pro-Pro-Phe-Leu-Gln-Pro-Glu] | – | had a prophylactic activity against amnesia | –
3 | NIPPLTQTPVVVPPFLQP (Synthetic comparative example) [Asn-Ile-Pro-Pro-Leu-Thr-Gln-Thr-Pro-Val-Val-Val-Pro-Pro-Phe-Leu-Gln-Pro] | did not show any prophylactic activity against amnesia | – | –
4 | NIPPLTQTPVVVPPFLQPE (Synthetic functional peptide) [Asn-Ile-Pro-Pro-Leu-Thr-Gln-Thr-Pro-Val-Val-Val-Pro-Pro-Phe-Leu-Gln-Pro-Glu] | had a prophylactic activity against amnesia | – | prophylactic activity against amnesia (percentage of spontaneous alternation behavior) ([1]; Example 1, FIG. 1, 0.05 nmol/kg weight to 500 nmol/kg weight (0.1 to 1000 μg/kg weight), scopolamine 1 mg/kg s.c. 30 min before, Dunnett's test): had a prophylactic activity against amnesia; prophylactic activity against amnesia (percentage of spontaneous alternation behavior) [2, 6]: had a prophylactic activity against amnesia; memory strengthening activity (exploration time ratio of novel object) [3]: had a memory strengthening activity
5 | NIPPLTQTPVVVPPFLQPEVM (Synthetic functional peptide) | had a prophylactic activity against amnesia | – | –
6 | PLTQTPVVVPPFLQPE (Synthetic functional peptide) [Pro-Leu-Thr-Gln-Thr-Pro-Val-Val-Val-Pro-Pro-Phe-Leu-Gln-Pro-Glu] | – | had a prophylactic activity against amnesia | –
7 | PPLTQTPVVVPPFLQPE (Synthetic functional peptide) [Pro-Pro-Leu-Thr-Gln-Thr-Pro-Val-Val-Val-Pro-Pro-Phe-Leu-Gln-Pro-Glu] | – | – | prophylactic activity against amnesia (percentage of spontaneous alternation behavior) [2, 6]: had a prophylactic activity against amnesia
8 | PVVVPPFLQPE (Synthetic functional peptide) [Pro-Val-Val-Val-Pro-Pro-Phe-Leu-Gln-Pro-Glu] | – | had a prophylactic activity against amnesia | –
9 | TQTPVVVPPF (Synthetic comparative example) [Thr-Gln-Thr-Pro-Val-Val-Val-Pro-Pro-Phe] | did not show any prophylactic activity against amnesia | – | –
10 | TQTPVVVPPFLQPE (Synthetic functional peptide) [Thr-Gln-Thr-Pro-Val-Val-Val-Pro-Pro-Phe-Leu-Gln-Pro-Glu] | – | – | prophylactic activity against amnesia (percentage of spontaneous alternation behavior) ([2]; Example 5, FIG. 5, 50 nmol/kg weight (80 μg/kg weight), Student's t-test): had a prophylactic activity against amnesia
11 | VVVPPFLQPE (Synthetic functional peptide) [Val-Val-Val-Pro-Pro-Phe-Leu-Gln-Pro-Glu] | – | had a prophylactic activity against amnesia | –
